Test results published in patent US20260034170A1, “NITRIC OXIDE TOPICAL APPLICATION APPARATUS AND METHODS” (NOxy Health Products, Inc., priority 2016, published 2026).

System: bacteria on a surface, such as a person's skin
Experiment: dose of nitric oxide required to kill bacteria on a surface

SMILES: [N]=O [nitric oxide]
- dose required to kill bacteria on a surface: ≥ 320 ppm
